# Laboratory results taken from ChEMBL document CHEMBL5723583, “Data for DCP probe BAY-9835” (2024).
# Activity calls are given as the source filed them. No cut-off for these calls is given here.
# Assays:
# [1] = target: A disintegrin and metalloproteinase with thrombospondin motifs 7 (Homo sapiens, UniProt Q9UKP4); test: Biochemical enzymatic FRET assay (hADAMTS7) ( FRET substrate, HiLyteFluor-488 DELSSMVLELRGLRT-K(QXL520)-E-NH2 (custom synthesis by Anaspec) was used.)
# [2] = target: Histamine H1 receptor (Homo sapiens) (UniProt P35367); test: Inhibition of Histamine H1 at 10.0 µM in the Eurofins-Panlabs selectivity screen; settings: Compound concentration 10.0 uM
# Histamine H1 receptor (Homo sapiens), sequence (P35367 whole entry): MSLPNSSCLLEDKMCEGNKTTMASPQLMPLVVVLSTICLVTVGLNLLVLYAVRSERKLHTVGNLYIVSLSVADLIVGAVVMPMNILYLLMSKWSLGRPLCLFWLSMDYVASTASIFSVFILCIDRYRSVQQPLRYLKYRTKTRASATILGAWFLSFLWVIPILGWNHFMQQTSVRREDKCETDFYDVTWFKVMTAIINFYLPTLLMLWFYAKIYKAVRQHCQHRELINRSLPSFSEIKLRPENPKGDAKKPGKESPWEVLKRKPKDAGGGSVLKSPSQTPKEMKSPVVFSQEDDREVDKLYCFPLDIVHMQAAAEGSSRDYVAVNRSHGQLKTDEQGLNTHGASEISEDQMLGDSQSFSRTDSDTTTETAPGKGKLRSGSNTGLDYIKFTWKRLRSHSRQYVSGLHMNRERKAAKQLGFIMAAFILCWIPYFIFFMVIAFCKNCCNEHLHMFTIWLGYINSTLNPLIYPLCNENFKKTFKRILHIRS
# [3] = target: 3',5'-cyclic-AMP phosphodiesterase 4D (Homo sapiens) (UniProt Q08499); test: Inhibition of Phosphodiesterase PDE4D2 at 10.0 µM in the Eurofins-Panlabs selectivity screen; settings: Compound concentration 10.0 uM
# 3',5'-cyclic-AMP phosphodiesterase 4D (Homo sapiens), sequence (Q08499 whole entry): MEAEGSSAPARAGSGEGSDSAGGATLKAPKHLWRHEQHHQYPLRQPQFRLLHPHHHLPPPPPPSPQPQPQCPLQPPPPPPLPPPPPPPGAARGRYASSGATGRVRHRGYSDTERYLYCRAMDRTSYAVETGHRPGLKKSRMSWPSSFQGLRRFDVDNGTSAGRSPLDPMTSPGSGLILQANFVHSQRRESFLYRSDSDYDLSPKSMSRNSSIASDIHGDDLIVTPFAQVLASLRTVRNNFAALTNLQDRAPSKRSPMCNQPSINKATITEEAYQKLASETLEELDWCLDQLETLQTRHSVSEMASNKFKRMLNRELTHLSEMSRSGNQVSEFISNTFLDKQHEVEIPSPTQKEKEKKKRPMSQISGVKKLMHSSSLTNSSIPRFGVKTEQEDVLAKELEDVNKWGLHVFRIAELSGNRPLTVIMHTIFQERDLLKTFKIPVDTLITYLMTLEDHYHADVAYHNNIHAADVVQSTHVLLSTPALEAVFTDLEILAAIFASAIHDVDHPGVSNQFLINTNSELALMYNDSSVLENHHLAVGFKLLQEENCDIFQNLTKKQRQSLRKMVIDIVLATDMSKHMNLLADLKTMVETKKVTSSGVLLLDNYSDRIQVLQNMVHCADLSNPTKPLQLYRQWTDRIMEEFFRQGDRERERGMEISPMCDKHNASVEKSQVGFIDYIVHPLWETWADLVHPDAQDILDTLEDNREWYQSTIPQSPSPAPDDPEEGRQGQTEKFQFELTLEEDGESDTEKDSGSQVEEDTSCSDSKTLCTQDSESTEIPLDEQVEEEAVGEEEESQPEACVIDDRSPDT
# [4] = target: Equilibrative nucleoside transporter 1/2/3/4 (Homo sapiens) (UniProt Q99808+Q7RTT9+Q14542+Q9BZD2); test: Inhibition of Transporter, Adenosine at 10.0 µM in the Eurofins-Panlabs selectivity screen; type: protein assay; settings: Compound concentration 10.0 uM
# [5] = target: Type-1 angiotensin II receptor (Homo sapiens) (UniProt P30556); test: Inhibition of Angiotensin AT1 at 10.0 µM in the Eurofins-Panlabs selectivity screen; settings: Compound concentration 10.0 uM
# Type-1 angiotensin II receptor (Homo sapiens), sequence (P30556 whole entry): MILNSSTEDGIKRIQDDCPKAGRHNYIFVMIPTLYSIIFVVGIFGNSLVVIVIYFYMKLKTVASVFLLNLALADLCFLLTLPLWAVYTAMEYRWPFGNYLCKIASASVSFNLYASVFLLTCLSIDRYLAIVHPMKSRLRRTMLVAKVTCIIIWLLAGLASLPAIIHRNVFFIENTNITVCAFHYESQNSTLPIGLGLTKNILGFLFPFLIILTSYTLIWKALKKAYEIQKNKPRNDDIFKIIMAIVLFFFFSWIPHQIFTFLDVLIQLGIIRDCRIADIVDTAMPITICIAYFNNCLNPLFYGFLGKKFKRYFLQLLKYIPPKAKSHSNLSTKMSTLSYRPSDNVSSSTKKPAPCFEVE
# [6] = target: P2X receptor (Rattus norvegicus) (UniProt P51579+P49653+P51578+Q64663+P47824+P51577+P49654); test: Inhibition of Purinergic P2X at 10.0 µM in the Eurofins-Panlabs selectivity screen; type: protein assay; settings: Compound concentration 10.0 uM
# [7] = target: Delta-type opioid receptor (Homo sapiens) (UniProt P41143); test: Inhibition of Opiate delta1 (OP1, DOP) at 10.0 µM in the Eurofins-Panlabs selectivity screen; settings: Compound concentration 10.0 uM
# [8] = target: Gamma-aminobutyric acid type B receptor subunit 1 (Homo sapiens) (UniProt Q9UBS5); test: Inhibition of GABAB, Non-Selective at 10.0 µM in the Eurofins-Panlabs selectivity screen; settings: Rattus norvegicus; Compound concentration 10.0 uM
# [9] = target: D(3) dopamine receptor (Homo sapiens) (UniProt P35462); test: Inhibition of Dopamine D3 at 10.0 µM in the Eurofins-Panlabs selectivity screen; settings: Compound concentration 10.0 uM
# D(3) dopamine receptor (Homo sapiens), sequence (P35462 whole entry): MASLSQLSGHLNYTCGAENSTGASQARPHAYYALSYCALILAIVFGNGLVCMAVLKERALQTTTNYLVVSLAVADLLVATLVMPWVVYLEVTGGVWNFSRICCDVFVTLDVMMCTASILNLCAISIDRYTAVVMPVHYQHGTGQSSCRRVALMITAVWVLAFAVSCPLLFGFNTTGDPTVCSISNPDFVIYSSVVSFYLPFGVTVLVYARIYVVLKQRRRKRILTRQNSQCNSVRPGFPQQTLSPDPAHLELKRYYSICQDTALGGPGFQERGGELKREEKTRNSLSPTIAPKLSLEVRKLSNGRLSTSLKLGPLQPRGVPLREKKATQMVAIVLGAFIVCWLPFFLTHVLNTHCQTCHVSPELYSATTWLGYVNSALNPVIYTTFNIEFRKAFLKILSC
# [10] = target: Sodium-dependent serotonin transporter (Homo sapiens) (UniProt P31645); test: Inhibition of Transporter, Serotonin (5-Hydroxytryptamine) (SERT) at 10.0 µM in the Eurofins-Panlabs selectivity screen; settings: Compound concentration 10.0 uM
# [11] = target: Cannabinoid receptor 2 (Homo sapiens) (UniProt P34972); test: Inhibition of Cannabinoid CB2 at 10.0 µM in the Eurofins-Panlabs selectivity screen; settings: Compound concentration 10.0 uM
# [12] = target: Endothelin-1 receptor (Homo sapiens) (UniProt P25101); test: Inhibition of Endothelin ETA at 10.0 µM in the Eurofins-Panlabs selectivity screen; settings: Compound concentration 10.0 uM
# [13] = target: Carbonic anhydrase 2 (Homo sapiens) (UniProt P00918); test: Inhibition of Carbonic Anhydrase II at 10.0 µM in the Eurofins-Panlabs selectivity screen; settings: Compound concentration 10.0 uM
# [14] = target: Acetylcholinesterase (Homo sapiens) (UniProt P22303); test: Inhibition of Cholinesterase, Acetyl, ACES at 10.0 µM in the Eurofins-Panlabs selectivity screen; settings: Compound concentration 10.0 uM
# [15] = target: Histamine H3 receptor (Homo sapiens) (UniProt Q9Y5N1); test: Inhibition of Histamine H3 at 10.0 µM in the Eurofins-Panlabs selectivity screen; settings: Compound concentration 10.0 uM
# [16] = target: Alpha-2B adrenergic receptor (Homo sapiens) (UniProt P18089); test: Inhibition of Adrenergic alpha2B at 10.0 µM in the Eurofins-Panlabs selectivity screen; settings: Compound concentration 10.0 uM
# [17] = target: Muscarinic acetylcholine receptor M4 (Homo sapiens) (UniProt P08173); test: Inhibition of Muscarinic M4 at 10.0 µM in the Eurofins-Panlabs selectivity screen; settings: Compound concentration 10.0 uM
# Muscarinic acetylcholine receptor M4 (Homo sapiens), sequence (P08173 whole entry): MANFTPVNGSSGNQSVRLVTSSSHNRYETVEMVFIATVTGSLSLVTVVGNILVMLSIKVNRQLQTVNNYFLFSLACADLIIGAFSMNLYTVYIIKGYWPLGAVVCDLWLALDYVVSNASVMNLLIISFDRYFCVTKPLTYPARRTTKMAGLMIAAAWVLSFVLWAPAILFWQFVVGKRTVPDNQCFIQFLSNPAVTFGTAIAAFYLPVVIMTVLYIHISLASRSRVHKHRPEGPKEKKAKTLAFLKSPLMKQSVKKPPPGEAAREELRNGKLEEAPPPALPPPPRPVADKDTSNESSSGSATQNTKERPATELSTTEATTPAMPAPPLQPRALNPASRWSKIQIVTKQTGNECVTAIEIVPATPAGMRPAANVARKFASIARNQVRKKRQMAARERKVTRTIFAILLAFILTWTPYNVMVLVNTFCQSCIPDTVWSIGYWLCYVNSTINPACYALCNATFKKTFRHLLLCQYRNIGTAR
# [18] = target: A disintegrin and metalloproteinase with thrombospondin motifs 12 (Homo sapiens, UniProt P58397); test: Biochemical enzymatic FRET assay (hADAMTS12) ( FRET substrate, HiLyteFluor-488 DELSSMVLELRGLRT-K(QXL520)-E-NH2 (custom synthesis by Anaspec) was used.)
# Cathepsin B = Cathepsin B (Homo sapiens, UniProt P07858); test: IC50 of Cathepsin B at 1.0 µM in the Bayer in-house protease panel
# [19] = target: D(2) dopamine receptor (Homo sapiens) (UniProt P14416); test: Inhibition of Dopamine D2S at 10.0 µM in the Eurofins-Panlabs selectivity screen; settings: Compound concentration 10.0 uM
# D(2) dopamine receptor (Homo sapiens), sequence (P14416 whole entry): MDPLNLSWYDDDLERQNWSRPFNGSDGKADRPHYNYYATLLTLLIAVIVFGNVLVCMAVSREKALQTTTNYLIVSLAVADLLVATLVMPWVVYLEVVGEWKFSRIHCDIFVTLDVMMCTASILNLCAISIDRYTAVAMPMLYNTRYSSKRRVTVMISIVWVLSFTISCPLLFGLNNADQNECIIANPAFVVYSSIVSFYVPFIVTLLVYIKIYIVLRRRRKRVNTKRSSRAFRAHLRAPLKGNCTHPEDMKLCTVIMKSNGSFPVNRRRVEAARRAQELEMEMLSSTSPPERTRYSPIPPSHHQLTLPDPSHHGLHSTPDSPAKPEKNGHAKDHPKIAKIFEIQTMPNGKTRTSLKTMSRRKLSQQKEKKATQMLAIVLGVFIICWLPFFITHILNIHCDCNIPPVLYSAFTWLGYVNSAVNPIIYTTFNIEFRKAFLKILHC
# [20] = target: D(2) dopamine receptor (Homo sapiens) (UniProt P14416); test: Inhibition of Dopamine D2L at 10.0 µM in the Eurofins-Panlabs selectivity screen; settings: Compound concentration 10.0 uM
# [21] = target: A disintegrin and metalloproteinase with thrombospondin motifs 4 (Homo sapiens, UniProt O75173); test: IC50 of hADAMTS4 at 1.0 µM in the Bayer in-house protease panel
# [22] = target: Adenosine receptor A3 (Homo sapiens) (UniProt P0DMS8); test: Inhibition of Adenosine A3 at 10.0 µM in the Eurofins-Panlabs selectivity screen; settings: Compound concentration 10.0 uM
# Adenosine receptor A3 (Homo sapiens), sequence (P0DMS8 whole entry): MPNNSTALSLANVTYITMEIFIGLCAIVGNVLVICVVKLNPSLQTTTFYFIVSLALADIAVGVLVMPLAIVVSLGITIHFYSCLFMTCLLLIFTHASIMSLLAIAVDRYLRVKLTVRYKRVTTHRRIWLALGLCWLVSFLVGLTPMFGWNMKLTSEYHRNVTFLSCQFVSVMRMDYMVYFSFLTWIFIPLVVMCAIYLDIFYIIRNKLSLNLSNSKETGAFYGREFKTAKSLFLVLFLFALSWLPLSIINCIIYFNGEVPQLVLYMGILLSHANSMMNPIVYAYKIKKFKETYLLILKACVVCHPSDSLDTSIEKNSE
# [23] = target: Prostaglandin G/H synthase 2 (Homo sapiens) (UniProt P35354); test: Inhibition of Cyclooxygenase COX-2 at 10.0 µM in the Eurofins-Panlabs selectivity screen; settings: Compound concentration 10.0 uM
# Prostaglandin G/H synthase 2 (Homo sapiens), sequence (P35354 whole entry): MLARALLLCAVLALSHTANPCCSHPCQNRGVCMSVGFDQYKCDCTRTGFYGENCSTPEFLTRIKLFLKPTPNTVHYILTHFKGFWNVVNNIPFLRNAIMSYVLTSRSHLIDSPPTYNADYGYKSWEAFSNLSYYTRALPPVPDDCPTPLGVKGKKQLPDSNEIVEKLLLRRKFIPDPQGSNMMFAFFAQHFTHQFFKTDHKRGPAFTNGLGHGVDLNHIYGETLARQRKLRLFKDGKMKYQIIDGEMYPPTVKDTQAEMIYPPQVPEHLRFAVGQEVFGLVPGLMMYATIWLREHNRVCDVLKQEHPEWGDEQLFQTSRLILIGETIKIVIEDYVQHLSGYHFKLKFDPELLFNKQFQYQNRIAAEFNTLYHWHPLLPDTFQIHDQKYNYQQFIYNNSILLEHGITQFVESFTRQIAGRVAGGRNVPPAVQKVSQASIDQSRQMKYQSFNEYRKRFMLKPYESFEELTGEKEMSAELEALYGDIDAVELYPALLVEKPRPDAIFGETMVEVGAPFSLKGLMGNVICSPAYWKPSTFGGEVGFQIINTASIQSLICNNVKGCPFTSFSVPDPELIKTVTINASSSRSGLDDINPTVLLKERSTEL
# [24] = target: Adenosine receptor A2a (Homo sapiens) (UniProt P29274); test: Inhibition of Adenosine A2A at 10.0 µM in the Eurofins-Panlabs selectivity screen; settings: Compound concentration 10.0 uM
# Adenosine receptor A2a (Homo sapiens), sequence (P29274 whole entry): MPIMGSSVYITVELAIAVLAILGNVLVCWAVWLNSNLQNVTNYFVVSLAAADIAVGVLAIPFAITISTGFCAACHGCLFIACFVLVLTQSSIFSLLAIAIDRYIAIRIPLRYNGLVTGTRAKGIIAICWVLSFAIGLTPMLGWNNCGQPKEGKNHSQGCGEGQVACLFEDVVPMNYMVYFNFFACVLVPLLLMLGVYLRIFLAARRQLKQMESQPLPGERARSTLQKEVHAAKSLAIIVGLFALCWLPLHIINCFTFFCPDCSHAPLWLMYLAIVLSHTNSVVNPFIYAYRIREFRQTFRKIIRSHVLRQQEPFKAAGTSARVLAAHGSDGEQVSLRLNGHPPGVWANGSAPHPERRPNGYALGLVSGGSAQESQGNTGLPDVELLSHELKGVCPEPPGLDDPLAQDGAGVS
# [25] = target: Aldo-keto reductase family 1 member B1 (Homo sapiens) (UniProt P15121); test: Inhibition of Aldose Reductase at 10.0 µM in the Eurofins-Panlabs selectivity screen; settings: Rattus norvegicus; Compound concentration 10.0 uM
# [26] = target: 5-hydroxytryptamine receptor 2A (Homo sapiens) (UniProt P28223); test: Inhibition of Serotonin (5-Hydroxytryptamine) 5-HT2A at 10.0 µM in the Eurofins-Panlabs selectivity screen; settings: Compound concentration 10.0 uM
# [27] = target: Alpha-2C adrenergic receptor (Homo sapiens) (UniProt P18825); test: Inhibition of Adrenergic alpha2C at 10.0 µM in the Eurofins-Panlabs selectivity screen; settings: Compound concentration 10.0 uM
# [28] = target: Mucosa-associated lymphoid tissue lymphoma translocation protein 1 (Homo sapiens, UniProt Q9UDY8); test: IC50 of MALT1 at 1.0 µM in the Bayer in-house protease panel
# [29] = target: Mu-type opioid receptor (Homo sapiens) (UniProt P35372); test: Inhibition of Opiate mu (OP3, MOP) at 10.0 µM in the Eurofins-Panlabs selectivity screen; settings: Compound concentration 10.0 uM
# Mu-type opioid receptor (Homo sapiens), sequence (P35372 whole entry): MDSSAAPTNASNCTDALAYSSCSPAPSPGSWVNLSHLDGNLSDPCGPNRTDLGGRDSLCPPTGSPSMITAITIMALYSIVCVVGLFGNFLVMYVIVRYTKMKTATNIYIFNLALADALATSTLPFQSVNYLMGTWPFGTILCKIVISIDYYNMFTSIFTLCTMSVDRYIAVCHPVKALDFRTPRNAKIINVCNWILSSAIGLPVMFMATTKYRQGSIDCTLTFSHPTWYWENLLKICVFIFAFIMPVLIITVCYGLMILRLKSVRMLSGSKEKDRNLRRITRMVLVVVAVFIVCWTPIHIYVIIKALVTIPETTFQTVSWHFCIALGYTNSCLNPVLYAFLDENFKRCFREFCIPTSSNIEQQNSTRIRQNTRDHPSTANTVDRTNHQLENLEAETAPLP
# [30] = target: Glucocorticoid receptor (Homo sapiens) (UniProt P04150); test: Inhibition of Glucocorticoid at 10.0 µM in the Eurofins-Panlabs selectivity screen; settings: Compound concentration 10.0 uM
# [31] = target: GABA transporter (Rattus norvegicus) (UniProt P31647+P23978+P31646+P48056); test: Inhibition of Transporter, GABA at 10.0 µM in the Eurofins-Panlabs selectivity screen; type: protein assay; settings: Compound concentration 10.0 uM
# [32] = target: B2 bradykinin receptor (Homo sapiens) (UniProt P30411); test: Inhibition of Bradykinin B2 at 10.0 µM in the Eurofins-Panlabs selectivity screen; settings: Compound concentration 10.0 uM
# [33] = target: Neuronal acetylcholine receptor; alpha3/beta4 (Homo sapiens) (UniProt P30926+P32297); test: Inhibition of Nicotinic Acetylcholine alpha3beta4 at 10.0 µM in the Eurofins-Panlabs selectivity screen; type: protein-complex assay; settings: Compound concentration 10.0 uM
# [34] = target: D(1A) dopamine receptor (Homo sapiens) (UniProt P21728); test: Inhibition of Dopamine D1 at 10.0 µM in the Eurofins-Panlabs selectivity screen; settings: Compound concentration 10.0 uM
compound,measurement,setting,value
Cn1nccc1[C@]1(CNC(=O)c2ccc(F)c(F)c2-c2ccc(C(F)(F)F)cc2)NC(=O)NC1=O,IC50,[1],0.006 µM (active)
same,inhibition,[2],-1%
same,inhibition,[3],3%
same,inhibition,[4],11%
same,inhibition,[5],-1%
same,inhibition,[6],0%
same,inhibition,[7],18%
same,inhibition,[8],3%
same,inhibition,[9],2%
same,inhibition,[10],10%
same,inhibition,[11],-1%
same,inhibition,[12],2%
same,inhibition,[13],-2%
same,inhibition,[14],3%
same,inhibition,[15],6%
same,inhibition,[16],-3%
same,inhibition,[17],-6%
same,IC50,[18],0.03 µM (active)
same,IC50,Cathepsin B,> 100 µM
same,inhibition,[19],0%
same,inhibition,[20],2%
same,IC50,[21],6.73 µM
same,inhibition,[22],0%
same,inhibition,[23],11%
same,inhibition,[24],3%
same,inhibition,[25],-4%
same,inhibition,[26],-7%
same,inhibition,[27],-1%
same,IC50,[28],> 100 µM
same,inhibition,[29],2%
same,inhibition,[30],3%
same,inhibition,[31],7%
same,inhibition,[32],-6%
same,inhibition,[33],2%
same,inhibition,[34],-1%
